Reference: PMC6979384, “Characterization of the plant homeodomain (PHD) reader family for their histone tail interactions” (Epigenetics & Chromatin, 2020)

Assays:
Test in all cases: Histone peptide microarray
Assay type in all cases: binding, human
[1] = tested on: AIRE (PP); settings: GST-tagged AIRE (PP); sheet Array Heatmap; each array performed twice, total n = 4
How it was run: (§1)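 Binding of recombinant GST-fused PHD readers (0.5 μM) is detected on an array of 293 histone peptides, modified singly or in combination. An optimized array protocol is followed, and each intensity is the average of quadruplicate measurements with standard deviation.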

[2] = tested on: BAZ2B; settings: GST-tagged BAZ2B; sheet Array Heatmap; each array performed twice, total n = 4
How it was run: as §1

[3] = tested on: BPTF (PB); settings: GST-tagged BPTF (PB = PHD + Bromodomain); sheet Array Heatmap; each array performed twice, total n = 4
How it was run: as §1

[4] = tested on: CHD4 (PPCC); settings: GST-tagged CHD4 (PPCC = Dual PHD + Dual Chromodomain); sheet Array Heatmap; each array performed twice, total n = 4
How it was run: as §1

[5] = tested on: CHD5 (PCC); settings: GST-tagged CHD5 (PCC = PHD + Dual Chromodomain); sheet Array Heatmap; each array performed twice, total n = 4
How it was run: as §1

[6] = tested on: CHD5 (PPCC); settings: GST-tagged CHD5 (PPCC = Dual PHD + Dual Chromodomain); sheet Array Heatmap; each array performed twice, total n = 4
How it was run: as §1

[7] = tested on: DPF2 (PPC2W2); settings: GST-tagged DPF2 (PPC2W2 = Dual PHD + C2W2-type Zn-finger); sheet Array Heatmap; each array performed twice, total n = 4
How it was run: as §1

[8] = tested on: ING1; settings: GST-tagged ING1; sheet Array Heatmap; each array performed twice, total n = 4
How it was run: as §1

[9] = tested on: ING2; settings: GST-tagged ING2; sheet Array Heatmap; each array performed twice, total n = 4
How it was run: as §1

[10] = tested on: ING3; settings: GST-tagged ING3; sheet Array Heatmap; each array performed twice, total n = 4
How it was run: as §1

[11] = tested on: ING4; settings: GST-tagged ING4; sheet Array Heatmap; each array performed twice, total n = 4
How it was run: as §1

[12] = tested on: ING5; settings: GST-tagged ING5; sheet Array Heatmap; each array performed twice, total n = 4
How it was run: as §1

[13] = tested on: KDM4C (TTP); settings: GST-tagged KDM4C (TTP = Tandem Tudor domain + PHD); sheet Array Heatmap; each array performed twice, total n = 4
How it was run: as §1

[14] = tested on: KDM5A (1); settings: GST-tagged KDM5A (1); sheet Array Heatmap; each array performed twice, total n = 4
How it was run: as §1

[15] = tested on: KDM5A (3); settings: GST-tagged KDM5A (3); sheet Array Heatmap; each array performed twice, total n = 4
How it was run: as §1

[16] = tested on: KDM5B (1); settings: GST-tagged KDM5B (1); sheet Array Heatmap; each array performed twice, total n = 4
How it was run: as §1

[17] = tested on: KDM5B (3)
How it was run: as §1

[18] = tested on: KDM7A; settings: GST-tagged KDM7A; sheet Array Heatmap; each array performed twice, total n = 4
How it was run: as §1

[19] = tested on: MORC3 (CW); settings: GST-tagged MORC3 (CW = CW-type Zn-finger); sheet Array Heatmap; each array performed twice, total n = 4
How it was run: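 Steps: express and purify GST-tagged PHD reader; incubate 0.5 μM protein on a peptide microarray (293 histone peptides, single or combined PTMs) following an optimized protocol; average signal across 4 replicates.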

[20] = tested on: PHF13; settings: GST-tagged PHF13; sheet Array Heatmap; each array performed twice, total n = 4
How it was run: as §1

[21] = tested on: PHF21A; settings: GST-tagged PHF21A; sheet Array Heatmap; each array performed twice, total n = 4
How it was run: as §1

[22] = tested on: PHF23; settings: GST-tagged PHF23; sheet Array Heatmap; each array performed twice, total n = 4
How it was run: as §1

[23] = tested on: PHF8; settings: GST-tagged PHF8; sheet Array Heatmap; each array performed twice, total n = 4
How it was run: as §1

[24] = tested on: PHRF1 (RP); settings: GST-tagged PHRF1 (RP); sheet Array Heatmap; each array performed twice, total n = 4
How it was run: as §1

[25] = tested on: TAF3; settings: GST-tagged TAF3; sheet Array Heatmap; each array performed twice, total n = 4
How it was run: as §1

[26] = tested on: TRIM66 (PB); settings: GST-tagged TRIM66 (PB = PHD + Bromodomain); sheet Array Heatmap; each array performed twice, total n = 4
How it was run: as §1

## H3K4me3: H3 1-20 [Peptide H3K4me3]
[1]
  Array Heatmap signal (histone peptide microarray): 0.3854
[2]
  Array Heatmap signal (histone peptide microarray): 0.4249
[3]
  Array Heatmap signal (histone peptide microarray): 0.3538
[4]
  Array Heatmap signal (histone peptide microarray): 0.5281
[5]
  Array Heatmap signal (histone peptide microarray): 0.6826
[6]
  Array Heatmap signal (histone peptide microarray): 0.5167
[7]
  Array Heatmap signal (histone peptide microarray): 0.5958
[8]
  Array Heatmap signal (histone peptide microarray): 0.6386
[9]
  Array Heatmap signal (histone peptide microarray): 0.6884
[10]
  Array Heatmap signal (histone peptide microarray): 0.4876
[11]
  Array Heatmap signal (histone peptide microarray): 0.4513
[12]
  Array Heatmap signal (histone peptide microarray): 0.3493
[13]
  Array Heatmap signal (histone peptide microarray): 0.4579
[14]
  Array Heatmap signal (histone peptide microarray): 0.4187
[15]
  Array Heatmap signal (histone peptide microarray): 0.6781
[16]
  Array Heatmap signal (histone peptide microarray): 0.5666
[17]; GST-tagged KDM5B (3), sheet Array Heatmap, each array performed twice, total n = 4
  Array Heatmap signal (histone peptide microarray): 0.4784
[17]; peptide microarray, reader 0.5 μM, n = 4, comparison between K9ac + K18ac peptides
  binding preference: showed such a preference on peptide microarrays
[18]
  Array Heatmap signal (histone peptide microarray): 0.3234
[19]
  Array Heatmap signal (histone peptide microarray): 0.5878
[20]
  Array Heatmap signal (histone peptide microarray): 0.5859
[21]
  Array Heatmap signal (histone peptide microarray): 0.4238
[22]
  Array Heatmap signal (histone peptide microarray): 0.678
[23]
  Array Heatmap signal (histone peptide microarray): 0.4526
[24]
  Array Heatmap signal (histone peptide microarray): 0.4656
[25]
  Array Heatmap signal (histone peptide microarray): 0.3678
[26]
  Array Heatmap signal (histone peptide microarray): 0.622
